According to patent publication US9670227B2, “Thienopyrimidine derivatives, a process for their preparation and pharmaceutical compositions containing them” (LES LABORATOIRES SERVIER, priority 2013, dated 2017):

The molecules below were run against Mcl-1 protein (UniProtKB primary accession number: Q07820) (Homo sapiens, UniProt Q07820) (assay: Inhibition of Mcl-1 by fluorescence polarisation, Method 1). Conditions: fluorescence polarisation; Method 1, or Method 2; read-out: IC50 (M) Mcl-1 FP.
Sequence of Mcl-1 protein (Q07820 whole entry): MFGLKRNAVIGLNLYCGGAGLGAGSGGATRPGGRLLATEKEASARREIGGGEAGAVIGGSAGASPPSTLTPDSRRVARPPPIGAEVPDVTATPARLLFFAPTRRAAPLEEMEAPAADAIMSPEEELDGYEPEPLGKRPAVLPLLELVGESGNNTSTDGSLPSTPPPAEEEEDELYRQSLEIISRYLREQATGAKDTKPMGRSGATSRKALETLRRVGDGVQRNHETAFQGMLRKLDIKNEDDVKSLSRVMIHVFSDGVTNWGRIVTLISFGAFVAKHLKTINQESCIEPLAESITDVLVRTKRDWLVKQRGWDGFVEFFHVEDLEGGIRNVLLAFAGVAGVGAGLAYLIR
Assay type: binding
Summary of the method: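 Binding was measured as fluorescence polarisation of a fluorescein-labelled ligand (1 nM) displaced from Mcl-1 (5 nM), both final. Compounds ran as 11-point series with final DMSO at 5%.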
`COc1ccccc1CC(Oc1ncnc2sc(-c3ccc(C(=O)N(C)C)o3)c(-c3ccc(OCCN4CCN(C)CC4)c(Cl)c3C)c12)C(=O)O` [Example 582, (2R)-2-[((5Sa)-5-{3-chloro-2-methyl-4-[2-(4-methylpiperazin-1-yl)ethoxy]phenyl}-6-[5-(dimethylcarbamoyl)furan-2-yl]thieno[2,3-d]pyrimidin-4-yl)oxy]-3-(2-methoxyphenyl)propanoic acid] gave an IC50 of 8.4e-08 M.
Molecule `COC(=O)c1ccc(-c2sc3ncnc(OC(Cc4ccccc4OC)C(=O)O)c3c2-c2ccc(OCCN3CCN(C)CC3)c(Cl)c2C)o1` [Example 583, (2R)-2-[((5Sa)-5-{3-chloro-2-methyl-4-[2-(4-methylpiperazin-1-yl)ethoxy]phenyl}-6-[5-(methoxycarbonyl)furan-2-yl]thieno[2,3-d]pyrimidin-4-yl)oxy]-3-(2-methoxyphenyl)propanoic acid] has an IC50 of 1.1e-07 M.
`COc1ccccc1CC(Oc1ncnc2sc(-c3ccc(-c4ccccc4)o3)c(-c3ccc(OCCN4CCN(C)CC4)c(Cl)c3C)c12)C(=O)O` [Example 586, (2R)-2-{[(5Sa)-5-{3-chloro-2-methyl-4-[2-(4-methylpiperazin-1-yl)ethoxy]phenyl}-6-(5-phenylfuran-2-yl)thieno[2,3-d]pyrimidin-4-yl]oxy}-3-(2-methoxyphenyl)propanoic acid] was tested, and the IC50 was 1.4e-06 M.
Molecule `COCCCc1sc2ncnc(OC(Cc3ccccc3OCc3ccnc(OC)n3)C(=O)O)c2c1-c1ccc(OCCN2CCN(C)CC2)c(Cl)c1C` [Example 599, (2R)-2-{[(5Sa)-5-{3-chloro-2-methyl-4-[2-(4-methylpiperazin-1-yl)ethoxy]phenyl}-6-(3-methoxypropyl)thieno[2,3-d]pyrimidin-4-yl]oxy}-3-{2-[(2-methoxypyrimidin-4-yl)methoxy]phenyl}propanoic acid] has an IC50 of 1.1e-08 M.
In the case of `CCCCn1nccc1COc1ccccc1CC(Oc1ncnc2sc(C#N)c(-c3ccc(OCCN4CCN(C)CC4)c(Cl)c3C)c12)C(=O)O` [Example 614, (2R)-3-{2-[(1-butyl-1H-pyrazol-5-yl)methoxy]phenyl}-2-[((5Sa)-5-{3-chloro-2-methyl-4-[2-(4-methylpiperazin-1-yl)ethoxy]phenyl}-6-cyanothieno[2,3-d]pyrimidin-4-yl)oxy]propanoic acid], the IC50 is reported as 8.4e-09 M.
`CCCCn1nccc1COc1ccccc1CC(Oc1ncnc2sc(-c3ccc(N)nc3)c(-c3ccc(OCCN4CCN(C)CC4)c(Cl)c3C)c12)C(=O)O` [Example 618, (2R)-2-{[6-(6-aminopyridin-3-yl)-(5Sa)-5-{3-chloro-2-methyl-4-[2-(4-methylpiperazin-1-yl)ethoxy]phenyl}thieno[2,3-d]pyrimidin-4-yl]oxy}-3-{2-[(1-butyl-1H-pyrazol-5-yl)methoxy]phenyl}propanoic acid] gave an IC50 of 5.6e-09 M.
`CCOC(=O)C(Cc1ccccc1OC)Oc1ncnc2sc(-c3ccco3)c(-c3ccc(OCCN4CCN(C)CC4)c(Cl)c3C)c12` [Example 627, ethyl (2R)-2-{[(5Sa)-5-{3-chloro-2-methyl-4-[2-(4-methylpiperazin-1-yl)ethoxy]phenyl}-6-(furan-2-yl)thieno[2,3-d]pyrimidin-4-yl]oxy}-3-(2-methoxyphenyl)propanoate] showed an IC50 of 4.9e-07 M.
Molecule `COc1ccccc1CC(Oc1ncnc2sc(-c3ccc(F)cc3)c(-c3ccc(OCCN4CCN(C)CC4)c(Cl)c3C)c12)C(=O)OCC(F)(F)F` [Example 641, 2,2,2-trifluoroethyl (2R)-2-{[(5Sa)-5-{3-chloro-2-methyl-4-[2-(4-methylpiperazin-1-yl)ethoxy]phenyl}-6-(4-fluorophenyl)thieno[2,3-d]pyrimidin-4-yl]oxy}-3-(2-methoxyphenyl)propanoate] has an IC50 of 9.6e-07 M.

Same assay, conditions: partial inhibitors; @ 10 uM test compound
In the case of `CCOC(=O)[C@@H](Cc1ccccc1OCc1ccnn1C(C)C)Oc1ncnc2sc(-c3ccc(F)cc3)c(-c3ccc(OCCN4CCN(C)CC4)c(Cl)c3C)c12` [Example 624, ethyl (2R)-2-{[(5Sa)-5-{3-chloro-2-methyl-4-[2-(4-methylpiperazin-1-yl)ethoxy]phenyl}-6-(4-fluorophenyl)thieno[2,3-d]pyrimidin-4-yl]oxy}-3-(2-{[1-(propan-2-yl)-1H-pyrazol-5-yl]methoxy}phenyl)propanoate], the “percentage fluorescence polarisation inhibition, Mcl-1 FP” value is reported as 26.95% @ 10 uM.
For `CCOC(=O)[C@@H](Cc1ccccc1OCc1ccnc(OC)n1)Oc1ncnc2sc(-c3ccc(F)cc3)c(-c3ccc(OCCN4CCN(C)CC4)c(Cl)c3C)c12` [Example 626, ethyl (2R)-2-{[(5Sa)-5-{3-chloro-2-methyl-4-[2-(4-methylpiperazin-1-yl)ethoxy]phenyl}-6-(4-fluorophenyl)thieno[2,3-d]pyrimidin-4-yl]oxy}-3-{2-[(2-methoxypyrimidin-4-yl)methoxy]phenyl}propanoate], the “percentage fluorescence polarisation inhibition, Mcl-1 FP” value was 39.45% @ 10 uM.
`CCOC(=O)[C@@H](Cc1ccccc1OC[C@H]1CCCO1)Oc1ncnc2sc(-c3ccc(F)cc3)c(-c3ccc(OCCN4CCN(C)CC4)c(Cl)c3C)c12` [Example 628, ethyl (2R)-2-{[(5Sa)-5-{3-chloro-2-methyl-4-[2-(4-methylpiperazin-1-yl)ethoxy]phenyl}-6-(4-fluorophenyl)thieno[2,3-d]pyrimidin-4-yl]oxy}-3-{2-[(2R)-tetrahydrofuran-2-ylmethoxy]phenyl}propanoate] was tested, and the “percentage fluorescence polarisation inhibition, Mcl-1 FP” value was 33.2% @ 10 uM.
`CCOC(=O)[C@@H](Cc1ccccc1OC[C@H]1CCCO1)Oc1ncnc2sc(-c3ccc(F)cc3)c(-c3ccc(OCCN4CCOCC4)c(Cl)c3C)c12` [Example 629, ethyl (2R)-2-{[(5Sa)-5-{3-chloro-2-methyl-4-[2-(morpholin-4-yl)ethoxy]phenyl}-6-(4-fluorophenyl)thieno[2,3-d]pyrimidin-4-yl]oxy}-3-{2-[(2R)-tetrahydrofuran-2-ylmethoxy]phenyl}propanoate] was tested, and the “percentage fluorescence polarisation inhibition, Mcl-1 FP” value was 14.95% @ 10 uM.
`CCOC(=O)C(Cc1ccccc1OCC1CCCO1)Oc1ncnc2sc(-c3ccc(F)cc3)c(-c3ccc(OCCN(C)C)c(Cl)c3C)c12` [Example 630, ethyl (2R)-2-{[(5Sa)-5-{3-chloro-4-[2-(dimethylamino)ethoxy]-2-methylphenyl}-6-(4-fluorophenyl)thieno[2,3-d]pyrimidin-4-yl]oxy}-3-{2-[(2R)-tetrahydrofuran-2-ylmethoxy]phenyl}propanoate] was tested, and the “percentage fluorescence polarisation inhibition, Mcl-1 FP” value was 27.95% @ 10 uM.
`CCOC(=O)[C@@H](Cc1ccccc1OCc1cnccn1)Oc1ncnc2sc(-c3ccc(F)cc3)c(-c3ccc(OCCN4CCN(C)CC4)c(Cl)c3C)c12` [Example 631, ethyl (2R)-2-{[(5Sa)-5-{3-chloro-2-methyl-4-[2-(4-methylpiperazin-1-yl)ethoxy]phenyl}-6-(4-fluorophenyl)thieno[2,3-d]pyrimidin-4-yl]oxy}-3-[2-(pyrazin-2-ylmethoxy)phenyl]propanoate] was tested, and the “percentage fluorescence polarisation inhibition, Mcl-1 FP” value was 56% @ 10 uM.
For `CCOC(=O)[C@@H](Cc1ccccc1OCc1cnccn1)Oc1ncnc2sc(-c3ccc(F)cc3)c(-c3ccc(OCCN4CCOCC4)c(Cl)c3C)c12` [Example 632, ethyl (2R)-2-{[(5Sa)-5-{3-chloro-2-methyl-4-[2-(morpholin-4-yl)ethoxy]phenyl}-6-(4-fluorophenyl)thieno[2,3-d]pyrimidin-4-yl]oxy}-3-[2-(pyrazin-2-ylmethoxy)phenyl]propanoate], the “percentage fluorescence polarisation inhibition, Mcl-1 FP” value was 41.8% @ 10 uM.
For `CCOC(=O)[C@@H](Cc1ccccc1OC)Oc1ncnc2sc(-c3ccsc3)c(-c3ccc(OCCN4CCN(C)CC4)c(Cl)c3C)c12` [Example 633, ethyl (2R)-2-{[(5Sa)-5-{3-chloro-2-methyl-4-[2-(4-methylpiperazin-1-yl)ethoxy]phenyl}-6-(thiophen-3-yl)thieno[2,3-d]pyrimidin-4-yl]oxy}-3-(2-methoxyphenyl)propanoate], the “percentage fluorescence polarisation inhibition, Mcl-1 FP” value was 40.2 % @ 10 uM.
In the case of `CCOC(=O)[C@@H](Cc1ccccc1OCC(F)(F)F)Oc1ncnc2sc(-c3ccc(F)cc3)c(-c3ccc(OCCN(C)C)c(Cl)c3C)c12` [Example 634, ethyl (2R)-2-{[(5Sa)-5-{3-chloro-4-[2-(dimethylamino)ethoxy]-2-methylphenyl}-6-(4-fluorophenyl)thieno[2,3-d]pyrimidin-4-yl]oxy}-3-[2-(2,2,2-trifluoroethoxy)phenyl]propanoate], the “percentage fluorescence polarisation inhibition, Mcl-1 FP” value is reported as 10.7% @ 10 uM.
`CCOC(=O)[C@@H](Cc1ccccc1OCC(F)(F)F)Oc1ncnc2sc(-c3ccc(F)cc3)c(-c3ccc(OCCN4CCN(C)CC4)c(Cl)c3C)c12` [Example 635, ethyl (2R)-2-{[(5Sa)-5-{3-chloro-2-methyl-4-[2-(4-methylpiperazin-1-yl)ethoxy]phenyl}-6-(4-fluorophenyl)thieno[2,3-d]pyrimidin-4-yl]oxy}-3-[2-(2,2,2-trifluoroethoxy)phenyl]propanoate] was tested, and the “percentage fluorescence polarisation inhibition, Mcl-1 FP” value was 50.75% @ 10 uM.
In the case of `CCOC(=O)[C@@H](Cc1ccccc1OCC(F)(F)F)Oc1ncnc2sc(-c3ccc(F)cc3)c(-c3ccc(OCCN4CCOCC4)c(Cl)c3C)c12` [Example 637, ethyl (2R)-2-{[(5Sa)-5-{3-chloro-2-methyl-4-[2-(morpholin-4-yl)ethoxy]phenyl}-6-(4-fluorophenyl)thieno[2,3-d]pyrimidin-4-yl]oxy}-3-[2-(2,2,2-trifluoroethoxy)phenyl]propanoate], the “percentage fluorescence polarisation inhibition, Mcl-1 FP” value is reported as 5.9% @ 10 uM.
In the case of `COc1ccccc1C[C@@H](Oc1ncnc2sc(-c3ccc(F)cc3)c(-c3ccc(OCCN4CCN(C)CC4)c(Cl)c3C)c12)C(=O)Oc1ccc2c(c1)CCC2` [Example 640, 2,3-dihydro-1H-inden-5-yl (2R)-2-{[(5Sa)-5-{3-chloro-2-methyl-4-[2-(4-methylpiperazin-1-yl)ethoxy]phenyl}-6-(4-fluorophenyl)thieno[2,3-d]pyrimidin-4-yl]oxy}-3-(2-methoxyphenyl)propanoate], the “percentage fluorescence polarisation inhibition, Mcl-1 FP” value is reported as 42.4% @ 10 uM.

Same assay, conditions: partial inhibitors; @ 1000 uM test compound
With `CCOC(=O)[C@@H](Cc1ccccc1OC)Oc1ncnc2sc(-c3ccsc3)c(-c3ccc(O)c(Cl)c3C)c12` [Example 636, ethyl (2R)-2-{[(5Sa)-5-(3-chloro-4-hydroxy-2-methylphenyl)-6-(thiophen-3-yl)thieno[2,3-d]pyrimidin-4-yl]oxy}-3-(2-methoxyphenyl)propanoate] the “percentage fluorescence polarisation inhibition, Mcl-1 FP” value was 71.7 % @ 1000 uM.
